In US20250171434A1, “SEC61 INHIBITORS AND USE THEREOF” (KEZAR LIFE SCIENCES, INC., priority 2022, published 2025):

Key:
[1] = Liver Microsome Stability Assay, mouse; type: in vitro ADME; details: mouse liver microsomes 1.0 mg/mL, 1.0 uM compound, 37° C., 1 mM NADPH
In short: (§1)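 1.0 uM cpd, 0.4% DMSO, 1.0 mg/mL microsomes, 0.1 M KPi, 37° C, ±1 mM NADPH; quench 0 and 30 min.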

[2] = Liver Microsome Stability Assay, human; type: in vitro ADME; details: human liver microsomes 1.0 mg/mL, 1.0 uM compound, 37° C., 1 mM NADPH
In short: as §1

[3] = tested on: multiple myeloma cell line NCI-H929; experiment: H929 Cell Viability Assay; type: cell-based, human; details: Homo sapiens; NCI-H929 cells, 48 hours, Celltiter-Glo; read-out: 48 hr H929 Viability Celltiter-Glo: Mean EC50
In short: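 Plate the myeloma cells in RPMI 1640 with 10% FBS, add serially diluted compound, incubate for 48 hours at 37° C, then add CellTiter-Glo and read luciferase signal.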

[4] = tested on: IL-2-FL/Gaussia Luciferase; experiment: Dox Inducible IL2-FL-Gluc Assay; type: cell-based; details: Table 1; for IC50: read-out: 24 hr Dox Inducible IL2FLGluc 293FRT/TO: Mean IC50; for 24 hr Dox Inducible IL2FLGluc 293FRT/TO: IL2/PD1: ratio of IC50s IL2/PD1
In short: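 Reporter is Gaussia luciferase fused to the 3′ end of full-length IL-2 (aa 1-153), expressed from a doxycycline-inducible T-REx construct in stably selected Flp-In 293 cells. Compounds were co-added with doxycycline and incubated at 37° C, 5% CO2.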

[5] = tested on: PD1-ss+10aa/Gaussia Luciferase; experiment: Dox-Induced PD1-ss-Gluc Assay; type: cell-based; details: Flp-In 293 T-REx cells, 24 hours with doxycycline; Table 1; read-out: 24 hr Dox Inducible PD1ssGluc 293FRT/TO: Mean IC50
In short: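 The cell line was made by transfecting Flp-In 293 T-REx cells with a PD1 signal sequence+10aa–Gaussia luciferase fusion under T-REx control and selecting with hygromycin and blasticidin. Cells were seeded, and next day compound plus doxycycline was added at 37 °C, 5% CO2.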

[6] = Liver Microsome Stability Assay, monkey; type: in vitro ADME; details: monkey liver microsomes 1.0 mg/mL, 1.0 uM compound, 37° C., 1 mM NADPH
In short: as §1

[7] = Liver Microsome Stability Assay, rat; type: in vitro ADME; details: rat liver microsomes 1.0 mg/mL, 1.0 uM compound, 37° C., 1 mM NADPH
In short: as §1

[8] = tested on: CD47(ss + 10)Gluc; experiment: Dox-Induced CD47-ss-Gluc Assay; type: cell-based; details: Flp-In 293 T-REx cells, 24 hours with doxycycline; Table 1; read-out: 24 hr Dox Inducible CD47(ss + 10)Gluc 293FRT/TO: Mean IC50
[9] = tested on: IL6R-ss+10aa/Gaussia Luciferase; experiment: Dox-induced IL-6R-ss-Gluc Assay; type: cell-based; details: Table 1; for IC50: Flp-In 293 T-REx cells, 24 hours with doxycycline, read-out: 24hr Dox Inducible IL6R(ss + 10)Gluc 293FRT/TO: Mean IC50; for 24hr Dox Inducible IL6R(ss + 10)Gluc 293FRT/TO: IL6R/PD1: ratio of IC50s IL6R/PD1
In short: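 Flp-In 293 T-REx cells stably carrying a doxycycline-inducible IL6R signal sequence+10 aa fused to Gaussia luciferase. Cells plated the day before; compound dilutions added in DMSO/media containing doxycycline and incubated at 37 °C, 5% CO2.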

[10] = tested on: multiple myeloma cell line U266B1; experiment: U266 Cell Viability Assay; type: cell-based; details: Homo sapiens, U-266; U266B1 cells, 48 hours, Celltiter-Glo; read-out: 48 hr U266 Viability Celltiter-Glo: Mean EC50
In short: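 48 h treatment, 37° C./5% CO2, RPMI 1640 + 10% FBS; viability by CellTiter-Glo luminescence.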

[11] = Flp-In 293 T-REx cells, 24 hours with doxycycline

Compound	Liver Microsome Stability (Multiple Species): Mouse - % Remaining after 30 min w/ NADPH (%) [1] [%]	Liver Microsome Stability (Multiple Species): Human - % Remaining after 30 min w/ NADPH (%) [2] [%]	EC50 [3] [µM]	IC50 [4, 11] [µM]	IC50 [5] [µM]	Liver Microsome Stability (Multiple Species): Monkey - % Remaining after 30 min w/ NADPH (%) [6] [%]	Liver Microsome Stability (Multiple Species): Rat - % Remaining after 30 min w/ NADPH (%) [7] [%]	IC50 [8] [µM]	IC50 [9] [µM]	EC50 [10] [µM]	24 hr Dox Inducible IL2FLGluc 293FRT/TO: Mean IC50 (nM) [4, 11]	24 hr Dox Inducible IL2FLGluc 293FRT/TO: IL2/PD1 [4]	24hr Dox Inducible IL6R(ss + 10)Gluc 293FRT/TO: IL6R/PD1 [9]
O=C(Nc1nc(/C=C/c2ncn(C3CC3)c2Cl)cs1)c1cc(SC(F)F)cn1Cc1ccnc(F)c1 [Compound A32, (E)-N-(4-(2-(5-chloro-1-cyclopropyl-1H-imidazol-4-yl)vinyl)thiazol-2-yl)-4-((difluoromethyl)thio)-1-((2-fluoropyridin-4-yl)methyl)-1H-pyrrole-2-carboxamide]	27	1	> 25	–	0.01	2	5	3.06	1.94	> 25	I.A	>2400	187
CN[C@H]1CC[C@H](/C=C/c2csc(NC(=O)c3cccn3Cc3ccncc3)n2)CC1 [Compound B12, N-(4-((E)-2-((1r,4r)-4-(methylamino)cyclohexyl)vinyl)thiazol-2-yl)-1-(pyridin-4-ylmethyl)-1H-pyrrole-2-carboxamide]	57	<1	> 25	7.13	17.1	<1	12	15.6	> 25	> 25	–	0.4	>1.5
N#Cc1ccc(/C=C/c2csc(NC(=O)c3cccn3Cc3ccnc(F)c3)n2)nc1 [Compound B13, (E)-N-(4-(2-(5-cyanopyridin-2-yl)vinyl)thiazol-2-yl)-1-((2-fluoropyridin-4-yl)methyl)-1H-pyrrole-2-carboxamide]	4	<1	> 25	> 25	0.05	<1	<1	> 25	> 25	> 25	–	>500	>500
Cc1nc(/C=C/c2csc(NC(=O)c3cccn3Cc3ccnc(F)c3)n2)ccc1C#N [Compound B14, (E)-N-(4-(2-(5-cyano-6-methylpyridin-2-yl)vinyl)thiazol-2-yl)-1-((2-fluoropyridin-4-yl)methyl)-1H-pyrrole-2-carboxamide]	0.2	<1	> 25	> 25	1.1	<1	<1	> 25	> 25	> 25	–	>23	>23
CC(=O)N[C@H]1CC[C@@H](/C=C/c2csc(NC(=O)c3cccn3Cc3ccncc3)n2)CC1 [Compound B15, N-(4-((E)-2-((1s,4s)-4-acetamidocyclohexyl)vinyl)thiazol-2-yl)-1-(pyridin-4-ylmethyl)-1H-pyrrole-2-carboxamide]	2	<1	> 25	> 25	11.9	<1	1	> 25	> 25	> 25	–	>2.1	>2

More lines, in order of falling EC50 [3], values ahead:

Liver Microsome Stability (Multiple Species): Mouse - % Remaining after 30 min w/ NADPH (%) [1] [%]	Liver Microsome Stability (Multiple Species): Human - % Remaining after 30 min w/ NADPH (%) [2] [%]	EC50 [3] [µM]	IC50 [4, 11] [µM]	IC50 [5] [µM]	Liver Microsome Stability (Multiple Species): Monkey - % Remaining after 30 min w/ NADPH (%) [6] [%]	Liver Microsome Stability (Multiple Species): Rat - % Remaining after 30 min w/ NADPH (%) [7] [%]	IC50 [8] [µM]	IC50 [9] [µM]	EC50 [10] [µM]	24 hr Dox Inducible IL2FLGluc 293FRT/TO: Mean IC50 (nM) [4, 11]	Compound	24 hr Dox Inducible IL2FLGluc 293FRT/TO: IL2/PD1 [4]	24hr Dox Inducible IL6R(ss + 10)Gluc 293FRT/TO: IL6R/PD1 [9]
54	1	24.7	14.1	18.7	3	32	> 25	> 25	> 25	–	CN[C@H]1CC[C@@H](/C=C/c2csc(NC(=O)c3cccn3Cc3ccncc3)n2)CC1 [Compound B11, N-(4-((E)-2-((1s,4s)-4-(methylamino)cyclohexyl)vinyl)thiazol-2-yl)-1-(pyridin-4-ylmethyl)-1H-pyrrole-2-carboxamide]	0.8	>1.3
82	10	22.7	> 25	0.004	25	65	2.21	1.26	> 25	–	O=C(Nc1nc(/C=C/c2ncn(C3CC3)c2Cl)cs1)c1cc(SC(F)(F)F)cn1Cc1ccnc(F)c1 [Compound A31, (E)-N-(4-(2-(5-chloro-1-cyclopropyl-1H-imidazol-4-yl)vinyl)thiazol-2-yl)-1-((2-fluoropyridin-4-yl)methyl)-4-((trifluoromethyl)thio)-1H-pyrrole-2-carboxamide]	>6300	317
79	1	19.3	19.5	8.11	2	47	7.07	8.77	21.3	–	N[C@H]1CC[C@@H](/C=C/c2csc(NC(=O)c3cccn3Cc3ccncc3)n2)CC1 [Compound B16, N-(4-((E)-2-((1s,4s)-4-aminocyclohexyl)vinyl)thiazol-2-yl)-1-(pyridin-4-ylmethyl)-1H-pyrrole-2-carboxamide]	2.4	1
4	<1	5.11	8.24	5.1	<1	17	> 25	23.8	8.61	–	CC(=O)N[C@H]1CC[C@H](/C=C/c2csc(NC(=O)c3cccn3Cc3ccncc3)n2)CC1 [Compound B17]	1.6	5
